“And” between values parts separate entries of the source, which are not always exact repeats. Equal values may be shown once. Inconclusive results and toxic doses are left out.
System: P388 leukemia ip, CD2F1 mice, survival T/C
Assay: NCI In Vivo Anticancer Drug Screen. Data for tumor model P388 Leukemia (intraperitoneal) in CD2F1 (CDF1) mice
Conditions: endpoint: median survival time, higher = longer survival
How it was run: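 Mice carrying the transplanted tumor received test compound or vehicle. Survival was recorded in each group, and the value is the treated-group measurement divided by that of the vehicle-treated control group.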

[1] = dose: 100.0 mg/kg/injection, schedule: Q04DX003 (ip), vehicle: saline
[2] = dose: 50.0 mg/kg/injection, schedule: Q01DX005 (ip), vehicle: saline with Tween-80
[3] = dose: 60.0 mg/kg/injection, schedule: Q01DX005 (ip), vehicle: saline with Tween-80
[4] = dose: 120.0 mg/kg/injection, schedule: Q01DX005 (ip), vehicle: saline with Tween-80
[5] = dose: 240.0 mg/kg/injection, schedule: Q01DX005 (ip), vehicle: saline with Tween-80
[6] = dose: 60.0 mg/kg/injection, schedule: Q01DX005 (ip), vehicle: Klucel (hydroxypropylcellulose) (HPC)
[7] = dose: 120.0 mg/kg/injection, schedule: Q01DX005 (ip), vehicle: Klucel (hydroxypropylcellulose) (HPC)
[8] = dose: 240.0 mg/kg/injection, schedule: Q01DX005 (ip), vehicle: Klucel (hydroxypropylcellulose) (HPC)

Compound: CC(C)NC(C)C(C)c1ccccc1 (configuration not stated)
- T/C (dose: 25.0 mg/kg/injection, schedule: Q04DX003 (ip), vehicle: saline): 99 % of control
- T/C (dose: 50.0 mg/kg/injection, schedule: Q01DX001 (ip), vehicle: saline): 94 % of control
- T/C (dose: 50.0 mg/kg/injection, schedule: Q04DX003 (ip), vehicle: saline): 100 % of control
- T/C (dose: 100.0 mg/kg/injection, schedule: Q01DX001 (ip), vehicle: saline): 96 % of control
- T/C [1]: 93 % of control

Compound: CN(C)c1ccc2c(N(C)C)cc(N(C)C)[n+](C)c2c1
- T/C (dose: 0.78 mg/kg/injection, schedule: Q01DX009 (ip), vehicle: distilled water + Tween-80 + alcohol): 106 % of control
- T/C (dose: 1.56 mg/kg/injection, schedule: Q01DX009 (ip), vehicle: distilled water + Tween-80 + alcohol): 115 % of control

Compound: [Cl][Pt]([Cl])([Cl])[Cl].c1ccc2[nH]cnc2c1.c1ccc2[nH]cnc2c1
- T/C (dose: 1.56 mg/kg/injection, schedule: Q01DX005 (ip), vehicle: saline with Tween-80): 87 % of control
- T/C (dose: 3.12 mg/kg/injection, schedule: Q01DX005 (ip), vehicle: saline with Tween-80): 97 % of control
- T/C (dose: 6.25 mg/kg/injection, schedule: Q01DX005 (ip), vehicle: saline with Tween-80): 94 % of control
- T/C [2]: 99 % of control and 96 % of control

Compound: O=C1C2CSCN2C(=O)CN1CCN1CCOCC1 (configuration not stated)
- T/C (dose: 60.0 mg/kg/injection, schedule: Q01DX005 (ip), vehicle: saline): 100 % of control
- T/C (dose: 120.0 mg/kg/injection, schedule: Q01DX005 (ip), vehicle: saline): 100 % of control
- T/C (dose: 240.0 mg/kg/injection, schedule: Q01DX005 (ip), vehicle: saline): 100 % of control

Compound: O=C(O)CCc1c2ccc(=O)c(O)c-2oc2c(O)c(O)ccc12
- T/C [3]: 104 % of control
- T/C [4]: 98 % of control
- T/C [5]: 103 % of control

Compound: Cc1cc2ccc(OC(=O)c3ccc(N=C(N)N)cc3)cc2oc1=O
- T/C (dose: 100.0 mg/kg/injection, schedule: Q04DX003 (ip), vehicle: saline with Tween-80): 100 % of control
- T/C (dose: 200.0 mg/kg/injection, schedule: Q04DX003 (ip), vehicle: saline with Tween-80): 91 % of control
- T/C (dose: 400.0 mg/kg/injection, schedule: Q04DX003 (ip), vehicle: saline with Tween-80): 87 % of control

Compound: O=C(CCCCCO)c1nc2ccccc2s1
- T/C [6]: 100 % of control
- T/C [7]: 102 % of control
- T/C [8]: 94 % of control

Compound: COc1cc([C@@H]2c3cc4c(cc3[C@H](O)[C@H]3COC(=O)[C@@H]23)OCO4)cc(OC)c1OC
- T/C (dose: 7.5 mg/kg/injection, schedule: Q01DX010 (ip), vehicle: saline): 109 % of control
- T/C (dose: 25.0 mg/kg/injection, schedule: Q04DX003 (ip), vehicle: saline sonified): 95 % of control
- T/C (dose: 30.0 mg/kg/injection, schedule: Q01DX010 (ip), vehicle: saline): 172 % of control
- T/C (dose: 50.0 mg/kg/injection, schedule: Q04DX003 (ip), vehicle: saline sonified): 112 % of control
- T/C (dose: 100.0 mg/kg/injection, schedule: Q04DX003 (ip), vehicle: saline sonified): 154 % of control

Compound: O=C(Nc1ccc(Cl)cc1)Nc1nnc2nc(C3(c4nc5nnc(NC(=O)Nc6ccc(Cl)cc6)n5[nH]c4=O)CCCC3=O)c(=O)[nH]n12
- T/C (dose: 30.0 mg/kg/injection, schedule: Q01DX005 (ip), vehicle: saline with Tween-80): 95 % of control
- T/C [3]: 91 % of control and 95 % of control
- T/C [5]: 86 % of control

Compound: CNP(=O)(N(C)C)N(C)C
- T/C (dose: 50.0 mg/kg/injection, schedule: Q01DX009 (ip), vehicle: saline): 96 % of control
- T/C (dose: 100.0 mg/kg/injection, schedule: Q01DX009 (ip), vehicle: saline): 98 % of control
- T/C (dose: 200.0 mg/kg/injection, schedule: Q01DX009 (ip), vehicle: saline): 106 % of control

Compound: CN1C(=O)C23CCCCN2CC12CC1(C(=O)Nc4c1ccc1c4OC=CC(C)(C)O1)C(C)(C)C2C3 (configuration not stated)
- T/C (dose: 0.37 mg/kg/injection, schedule: Q01DX009 (ip), vehicle: Klucel (hydroxypropylcellulose) (HPC)): 100 % of control
- T/C (dose: 0.75 mg/kg/injection, schedule: Q01DX009 (ip), vehicle: Klucel (hydroxypropylcellulose) (HPC)): 102 % of control
- T/C (dose: 1.5 mg/kg/injection, schedule: Q01DX009 (ip), vehicle: Klucel (hydroxypropylcellulose) (HPC)): 100 % of control
- T/C (dose: 3.0 mg/kg/injection, schedule: Q01DX009 (ip), vehicle: Klucel (hydroxypropylcellulose) (HPC)): 100 % of control
- T/C (dose: 4.5 mg/kg/injection, schedule: Q01DX009 (ip), vehicle: Klucel (hydroxypropylcellulose) (HPC)): 96 % of control
- T/C (dose: 9.0 mg/kg/injection, schedule: Q01DX009 (ip), vehicle: Klucel (hydroxypropylcellulose) (HPC)): 98 % of control
- T/C (dose: 18.0 mg/kg/injection, schedule: Q01DX009 (ip), vehicle: Klucel (hydroxypropylcellulose) (HPC)): 100 % of control

Compound: CCOC(=O)C1(C(=O)OCC)COC(=O)C1
- T/C (dose: 16.0 mg/kg/injection, schedule: Q01DX009 (ip), vehicle: saline with Tween-80): 97 % of control
- T/C (dose: 32.0 mg/kg/injection, schedule: Q01DX009 (ip), vehicle: saline with Tween-80): 109 % of control
- T/C (dose: 64.0 mg/kg/injection, schedule: Q01DX009 (ip), vehicle: saline with Tween-80): 114 % of control
- T/C (dose: 128.0 mg/kg/injection, schedule: Q01DX009 (ip), vehicle: saline with Tween-80): 97 % of control
- T/C (dose: 256.0 mg/kg/injection, schedule: Q01DX009 (ip), vehicle: saline with Tween-80): 106 % of control

Compound: N#CCc1ccc(Cl)c(Cl)c1
- T/C (dose: 6.25 mg/kg/injection, schedule: Q01DX009 (ip), vehicle: saline with Tween-80): 104 % of control
- T/C (dose: 12.5 mg/kg/injection, schedule: Q01DX009 (ip), vehicle: saline with Tween-80): 100 % of control
- T/C (dose: 12.5 mg/kg/injection, schedule: Q04DX003 (ip), vehicle: saline with Tween-80): 100 % of control
- T/C (dose: 25.0 mg/kg/injection, schedule: Q01DX009 (ip), vehicle: saline with Tween-80): 100 % of control
- T/C (dose: 25.0 mg/kg/injection, schedule: Q04DX003 (ip), vehicle: saline with Tween-80): 100 % of control

Compound: CC(=O)CC(=O)N1CCN(C(=O)CC(C)=O)CC1
- T/C [1]: 104 % of control
- T/C (dose: 200.0 mg/kg/injection, schedule: Q04DX003 (ip), vehicle: saline): 100 % of control
- T/C (dose: 400.0 mg/kg/injection, schedule: Q04DX003 (ip), vehicle: saline): 100 % of control

Compound: N#Cn1c2ccccc2c(=N)c2ccccc21
- T/C [3]: 103 % of control
- T/C [4]: 102 % of control

Compound: O=C1NC(=O)C2C3OC(C12)C1C2C(=O)NC(=O)C2C31 (configuration not stated)
- T/C [2]: 105 % of control
- T/C (dose: 100.0 mg/kg/injection, schedule: Q01DX005 (ip), vehicle: saline with Tween-80): 104 % of control

Compound: O=C(O)C(F)(F)F
- T/C (dose: 100.0 mg/kg/injection, schedule: Q01DX009 (ip), vehicle: saline with Tween-80): 90 % of control
- T/C (dose: 200.0 mg/kg/injection, schedule: Q01DX009 (ip), vehicle: saline with Tween-80): 95 % of control
- T/C (dose: 400.0 mg/kg/injection, schedule: Q01DX009 (ip), vehicle: saline with Tween-80): 90 % of control

Compound: COc1ccc2c3c1O[C@H](c1ccc(O)cc1)[C@H]3[N+](C)(C)CC2
- T/C (dose: 6.25 mg/kg/injection, schedule: Q01DX005 (ip), vehicle: Klucel (hydroxypropylcellulose) (HPC)): 107 % of control
- T/C (dose: 12.5 mg/kg/injection, schedule: Q01DX005 (ip), vehicle: Klucel (hydroxypropylcellulose) (HPC)): 110 % of control
- T/C (dose: 25.0 mg/kg/injection, schedule: Q01DX005 (ip), vehicle: Klucel (hydroxypropylcellulose) (HPC)): 110 % of control
- T/C (dose: 50.0 mg/kg/injection, schedule: Q01DX005 (ip), vehicle: Klucel (hydroxypropylcellulose) (HPC)): 103 % of control

Compound: COc1ccc2c(c1O)C13CC=NC(C2)C1C(C)(C)C(C)(C)C(=O)C3 (configuration not stated)
- T/C (dose: 12.5 mg/kg/injection, schedule: Q01DX005 (ip), vehicle: saline with Tween-80): 100 % of control
- T/C (dose: 25.0 mg/kg/injection, schedule: Q01DX005 (ip), vehicle: saline with Tween-80): 101 % of control
- T/C [2]: 100 % of control and 97 % of control

Compound: Cc1ccc(NC(=S)SCc2ccc(Cl)cc2)cc1Br
- T/C (dose: 50.0 mg/kg/injection, schedule: Q01DX009 (ip), vehicle: Klucel (hydroxypropylcellulose) (HPC)): 105 % of control and 123 % of control
- T/C (dose: 50.0 mg/kg/injection, schedule: Q01DX009 (ip), vehicle: suspension in saline): 109 % of control
- T/C (dose: 100.0 mg/kg/injection, schedule: Q01DX009 (ip), vehicle: Klucel (hydroxypropylcellulose) (HPC)): 114 % of control
- T/C (dose: 100.0 mg/kg/injection, schedule: Q01DX009 (ip), vehicle: suspension in saline): 104 % of control
- T/C (dose: 200.0 mg/kg/injection, schedule: Q01DX009 (ip), vehicle: Klucel (hydroxypropylcellulose) (HPC)): 121 % of control and 122 % of control
- T/C (dose: 200.0 mg/kg/injection, schedule: Q01DX009 (ip), vehicle: suspension in saline): 90 % of control

Compound: O=C1OC2(c3ccc(O)cc3Oc3cc(O)ccc32)C2C3C=CC(C3)C12 (configuration not stated)
- T/C [6]: 100 % of control
- T/C [7]: 104 % of control
- T/C [8]: 100 % of control

Reference: PubChem BioAssay AID330 (DTP/NCI, 2004)
